Experimental data taken from patent publication US4693998A, “Novel compounds of the muramyl peptide” (Agence Nationale de Valorisation de la Rechersche, priority 1978, dated 1987).

Assays:
[1] = Pyrogenicity: maximum temperature variation in rabbits during three hours after administration; assay type: in vivo, rabbit; settings: three hours following administration
Method: In the course of tests on rabbits, the maximum temperature variations during the three hours following administration were followed. For doses as high as 5 mg/kg or more of product, no significant variation in temperature is observed. Thus the average rise in temperature for administration to rabbits, for different esters of Mur-NAc-L-Ala-D-Gln is: […]

Klebsiella pneumoniae = assay: Anti-infection activity with respect to Klebsiella (mouse survival); assay type: in vivo; settings: for anti-infectious activity: higher percentage of survivors than control group
Text: The testing procedure is described in the article CHEDID L. et col., Proc. Natl. Acad. Sci. USA 1977, 74: 2089.
It was shown that a dose of 1 to 2.10^4 Klebsiella pneumoniae, injected by the intramuscular route to mice, results in the progressive death of a considerable part, if not of the whole, of the animals in the week following inoculation. After eight days, the survival of the remaining animals is finally achieved.
The survival of groups of mice inoculated under the above-indicated conditions and treated by means of the products according to the invention, was followed.
For these tests, hybrid mice (C571B1/6×AKR)F1 raised at the INSTITUT PASTEUR were used, there mice being raised from strains coming from the C.N.R.S. breeding station at ORLEANS.
Infection by Klebsiella pneumoniae, capsular type 2, biotype d, strain was effected with a 16 hour culture in medium for pneumococci (No. 53515, INSTITUT PASTEUR) was effected. The infecting dose was 2.10^4 Klebsiella; it was administered by the intramuscular route.
The administration of the tested product is effected by the intravenous route in 0.2 ml of apyrogenic physiological solution, the controls receiving the solution alone. It is carried out 24 hours before the inoculation.

[2] = tested on: ovalbumin specific antibodies / delayed hypersensitivity; assay: Adjuvant character in the presence of an oily phase (FIA): ovalbumin antibodies and delayed hypersensitivity; assay type: in vivo, Hartley guinea pigs; settings: for Serum Antibodies / Cutaneous test (diameter in mm): guinea pigs; for Serum Antibodies: 0.1 mg in FIA emulsion with 1 mg ovalbumin, intradermal, day 21, nitrogen precipitatable by the antigen; for Cutaneous test (diameter in mm): 0.1 mg in FIA emulsion, 0.01 mg ovalbumin intradermal at day 18, read 48 hours later; for delayed hypersensitivity reaction / level of antibodies formed: administered in an oily emulsion
Method: In these tests, the growth of the specific antibody level of a given antigen is followed when the latter is injected, with or without the adjuvant compound according to the invention, in a water in oil emulsion.
The tests were carried out on batches of 6 female Hartley guinea pigs of 350 g. The administration was done by intradermal injection into the plantar pad of each of the rear paws. The ovalbumin (constituting the antigen) at the dose of 1 mg is prepared in 0.1 ml of a saline isotonic solution emulsion, in an oily phase constituted by the Freund incomplete adjuvant (FIA). The compound according to the invention is administered at the dose of 0.1 mg added in the emulsion containing the FIA.
As previously, by way of comparison, a test was carried out with MDP in place of the product according to the invention.
Eighteen days after this immunization, possible reactions are sought of delayed hypersensitivity to the antigen by injecting by the intradermal route 0.01 mg of ovalbumin into the side of the animals, and there was observed, 48 hours later, the reaction at the point of injection. The diameter in millimeters of the reaction thus-caused was measured.
Twenty-one days after the injection, the animals were bled. In the serum collected, the content is measured of specific antibodies of ovalbumin by precipitation of the antibody-antigen complex in the equivalence zone. The amount of protein nitrogen contained in this precipitate was estimated by the method of Folin. These values express the amount, in micrograms, of nitrogen precipitatable by the antigen, per […] of serum.

[3] = tested on: bovine serum albumin (BSA) antibodies; assay: Adjuvant character in the aqueous phase: anti-albumin antibodies by passive hemagglutination; assay type: in vivo, Swiss mice; settings: for Antibody Titer Secondary Response / Antibody Titer Primary Response: Swiss mice, 100 μg s.c. with 0.5 mg BSA in isotonic saline; for Antibody Titer Secondary Response: after booster 0.1 mg BSA at 30 days; for Antibody Titer Primary Response: maximum serum dilution agglutinating; for level of antibodies formed: administered in isotonic saline solution
Method: In this series of trials of which the results are indicated below, the influence of the active principle according to the invention on the level of anti-albumin antibodies under the following conditions, were studied.
Groups of 8 Swiss mice aged two months received, by sub-cutaneous injection, 0.5 mg of antigen constituted by bovine serum albumin (BSA) with or without the tested substance in isotonic saline solution. This high dose of antigen, because it is situated at the limit of the paralysing dose with respect to the immune response, results for this reason, in a weak or nil response to the antigen alone in the controls; it therefore constitutes a severe criterion for establishing the activity of an adjuvant substance. Thirty days later, the mice received, by the same route of administration, a booster containing 0.1 mg of the same antigen.
By way of comparison, the adjuvant effect was studied simultaneously of 2-(2-acetamido-2-deoxy-3-O-D-glucopyranosyl)-D-propionyl-L-alanyl-D-isoglutamine (MDP) known for its adjuvant properties.
The antibody level is determined by passive hemagglutination using sheep's red blood cells treated with formalin and covered with the antigen studied according to the method described by A. A. HIRATA and M. W. BRANDISS (J. Immunol., 100, 641-648, 1968). Samples were taken respectively after the first injection of antigen and after injection of the booster to determine the primary and secondary responses.
The antibody titers express the maximum serum dilution agglutinating a given amount of sheep's red blood cells.

[4] = in vivo; cited from earlier work
[5] = cited from earlier work
total blood = assay: Influence on coagulation mechanisms: recalcification coagulation time after incubation with total blood; assay type: cell-based, rabbit; settings: for coagulation time: 100 μg per 1 ml total blood; for effect on coagulation: contrary to LPS
Text: It is known, from recent studies, that compounds having adjuvant properties like LPS can have side effects. Thus it has been observed in the rabbits that the administration of LPS has a tendency to shorten the coagulation time. The reasons for this phenomena are not fully known; nonetheless, it has seemed useful to determine the effect of the products according to the invention on coagulation under the same conditions.
For these tests, the test described by LERNER et col. in Thrombosis Research, Vol. 11, pp. 253-261, 1977, "Endotoxin induced disseminated intravascular clotting: evidence that it is mediated by neutrophile production of tissue factor", was used.
The total blood was divided into two portions of which one was centrifuged to obtain platelet-free plasma (PFP).
1 ml of total blood was incubated in a plastic tube in the presence of 100 μg of the product to be tested.
Tubes were also prepared containing 0.1 ml of PFP to which every hour, from 0 to 5 hours, were added 0.1 ml of incubation mixture, then these were recalcified by 0.1 ml of 0.025M calcium chloride.
The coagulation time was noted and the pro-coagulating activity was deduced therefrom as a function of the shortening of the coagulation time with respect to the control, physiological water. The result was compared with that of a highly pro-coagulant reference standard, the LPS.
The coagulation times are expressed in seconds.

Compound | average rise in temperature ([1]; at 10 mg/kg) [°C] | anti-infectious activity (Klebsiella pneumoniae) | Serum Antibodies [2] | Cutaneous test (diameter in mm) [2] [mm] | Antibody Titer Secondary Response [3] | Antibody Titer Primary Response [3] | delayed hypersensitivity reaction [2] | level of antibodies formed [2] | level of antibodies formed [3] | coagulation time (total blood; incubation 0 h) [s] | coagulation time (total blood; incubation 2 h) [s] | coagulation time (total blood; incubation 3 h) [s] | coagulation time (total blood; incubation 4 h) [s] | coagulation time (total blood; incubation 5 h) [s] | effect on coagulation (total blood) | other results
CCCCCCCCCCOC(=O)C(CCC(N)=O)NC(=O)C(C)NC(=O)C(C)OC1C(O)C(CO)OC(O)C1NC(C)=O [decyl ester, n-decyl ester of N-acetyl-muramyl-L-alanyl-D-glutamine] | 0.23 | anti-infectious activity |  |  |  |  |  |  |  |  |  |  |  |  |  | 
CC(=O)N[C@@H]1[C@@H](O[C@H](C)C(=O)N[C@@H](C)C(=O)N[C@H](CCC(=O)O)C(N)=O)[C@H](O)[C@@H](CO)O[C@H]1O [MDP, 2-(2-acetamido-2-deoxy-3-O-D-glucopyranosyl)-D-propionyl-L-alanyl-D-isoglutamine, reference compound] |  |  | 5,000 μg/ml | 15 | 300 ± 100 | 50 |  |  |  |  |  |  |  |  |  | 
CC(=O)N[C@H]1C(O)O[C@H](CO)[C@@H](O)[C@@H]1O[C@H](C)C(=O)N[C@@H](C)C(=O)N[C@H](CCC(N)=O)C(N)=O (stereo partly drawn) [diamide of N-acetyl-muramyl-L-alanyl-D-glutamic acid] |  |  |  |  |  |  |  |  |  |  |  |  |  |  |  | pyrogenicity [4]: very low level of pyrogenicity; adjuvant activity compared with N-acetyl-muramyl-L-alanyl-D-isoglutamine ([5]; in vivo): less active
COC(=O)CC[C@@H](NC(=O)[C@H](C)NC(=O)C(C)O[C@H]1[C@H](O)[C@@H](CO)O[C@H](O)[C@@H]1NC(C)=O)C(=O)OC (stereo partly drawn) [dimethyl ester of N-acetyl-muramyl-L-alanyl-D-glutamic acid] |  |  |  |  |  |  |  |  |  |  |  |  |  |  |  | adjuvant activity in oil compared with γ-methylester of N-acetyl-muramyl-L-alanyl-D-isoglutamine ([5]; in oil, ADAM et coll. 1976): lesser adjuvant activity in oil
COC(=O)[C@@H](CCC(N)=O)NC(=O)[C@H](C)NC(=O)[C@@H](C)O[C@H]1[C@H](O)[C@@H](CO)OC(O)[C@@H]1NC(C)=O (stereo partly drawn) [Mur--NAc--L-Ala--D-Glu(NH2)--OCH3, Methyl ester of N-acetyl-muramyl-L-alanyl-D-glutamine] |  |  | 6,000 μg/ml | 17 | 500 ± 150 | 100 | induces a delayed hypersensitivity reaction | very considerable increase in the level of antibodies formed | considerable increase in the level of antibodies formed | 125 | 118 | 109 | 110 | 104 | do not accelerate coagulation | average rise in temperature ([1]; at 5 mg/kg): 0.53 °C
n-butyl ester of N-acetyl-muramyl-L-alanyl-D-glutamine [Mur--NAc--L-Ala--D-Glu(NH2)--OC4 H9] | 0.30 | anti-infectious activity | 2,000 μg/ml | 8 | 600 ± 200 | 12 | induces a delayed hypersensitivity reaction | very considerable increase in the level of antibodies formed | considerable increase in the level of antibodies formed | 129 | 120 | 122 | 114 | 108 | do not accelerate coagulation | % Protection (Klebsiella pneumoniae; mice, 2.10^4 Klebsiella i.m., product i.v. 24 hours before inoculation): 63%; % Survival D3 (Klebsiella pneumoniae; mice, 2.10^4 Klebsiella i.m., product i.v. 24 hours before inoculation, day 3): 92%; % Survival D5 (Klebsiella pneumoniae; mice, 2.10^4 Klebsiella i.m., product i.v. 24 hours before inoculation, day 5): 75%; % Survival D10 (Klebsiella pneumoniae; mice, 2.10^4 Klebsiella i.m., product i.v. 24 hours before inoculation, day 10): 75%
